Assay results taken from ChEMBL document CHEMBL4270599, “Synthesis of a 3'-C-ethynyl-β-d-ribofuranose purine nucleoside library: Discovery of C7-deazapurine analogs as potent antiproliferative nucleosides” (Eur J Med Chem, 2018).

Columns and labels:
Type in all cases: functional
[1] = test system: HCT-116; test: Cytotoxicity against human HCT116 cells after 48 hrs by SRB assay; details: HCT-116, 48 h
[2] = test system: KM12; test: Cytotoxicity against human KM12 cells after 48 hrs by SRB assay; details: KM12, 48 h
[3] = test system: OVCAR-5; test: Cytotoxicity against human OVCAR5 cells after 48 hrs by SRB assay; details: OVCAR-5, 48 h
[4] = test system: SN12C; test: Cytotoxicity against human SN12C cells after 48 hrs by SRB assay
[5] = test system: Hs-578T; test: Cytotoxicity against human Hs 578T cells after 48 hrs by SRB assay
[6] = test system: HOP-62; test: Growth inhibition of human HOP62 cells assessed as cell growth at 10^-8 M incubated for 48 hrs by sulforhodamine B assay relative to control; details: HOP-62, 48 h, read-out: Activity
[7] = test system: NCI-H522; test: Growth inhibition of human NCI-H522 cells assessed as cell growth at 10^-8 M incubated for 48 hrs by sulforhodamine B assay relative to control; details: NCI-H522, 48 h, read-out: Activity
[8] = test system: HCC 2998; test: Growth inhibition of human HCC2998 cells assessed as cell growth at 10^-8 M incubated for 48 hrs by sulforhodamine B assay relative to control; details: HCC 2998, 48 h, read-out: Activity
[9] = test system: SF-268; test: Growth inhibition of human SF268 cells assessed as cell growth at 10^-8 M incubated for 48 hrs by sulforhodamine B assay relative to control; details: SF-268, 48 h, read-out: Activity
[10] = test system: SK-MEL-5; test: Growth inhibition of human SK-MEL-5 cells assessed as cell growth at 10^-8 M incubated for 48 hrs by sulforhodamine B assay relative to control; details: SK-MEL-5, 48 h, read-out: Activity
[11] = test system: NCI/ADR-RES; test: Growth inhibition of human NCI/ADR-RES cells assessed as cell growth at 10^-8 M incubated for 48 hrs by sulforhodamine B assay relative to control; details: read-out: Activity
[12] = test system: 786-0; test: Growth inhibition of human 786-0 cells assessed as cell growth at 10^-8 M incubated for 48 hrs by sulforhodamine B assay relative to control; details: 786-0, 48 h, read-out: Activity
[13] = test system: Hs-578T; test: Growth inhibition of human Hs 578T cells assessed as cell growth at 10^-8 M incubated for 48 hrs by sulforhodamine B assay relative to control; details: read-out: Activity
[14] = test system: MOLT-4; test: Growth inhibition of human MOLT4 cells assessed as cell growth at 10^-7 M incubated for 48 hrs by sulforhodamine B assay relative to control; details: MOLT-4, 48 h, read-out: Activity
[15] = test system: SK-MEL-5; test: Growth inhibition of human SK-MEL-5 cells assessed as cell growth at 10^-7 M incubated for 48 hrs by sulforhodamine B assay relative to control; details: SK-MEL-5, 48 h, read-out: Activity
[16] = test system: UACC-257; test: Growth inhibition of human UACC257 cells assessed as cell growth at 10^-7 M incubated for 48 hrs by sulforhodamine B assay relative to control; details: UACC-257, 48 h, read-out: Activity
[17] = test system: OVCAR-4; test: Growth inhibition of human OVCAR4 cells assessed as cell growth at 10^-7 M incubated for 48 hrs by sulforhodamine B assay relative to control; details: OVCAR-4, 48 h, read-out: Activity
[18] = test system: OVCAR-5; test: Growth inhibition of human OVCAR5 cells assessed as cell growth at 10^-7 M incubated for 48 hrs by sulforhodamine B assay relative to control; details: OVCAR-5, 48 h, read-out: Activity
[19] = test system: EKVX; test: Growth inhibition of human EKVX cells assessed as cell growth at 10^-6 M incubated for 48 hrs by sulforhodamine B assay relative to control; details: read-out: Activity
[20] = test system: NCI-H322M; test: Growth inhibition of human NCI-H322M cells assessed as cell growth at 10^-6 M incubated for 48 hrs by sulforhodamine B assay relative to control; details: read-out: Activity
[21] = test system: UACC-257; test: Growth inhibition of human UACC257 cells assessed as cell growth at 10^-6 M incubated for 48 hrs by sulforhodamine B assay relative to control; details: UACC-257, 48 h, read-out: Activity
[22] = test system: OVCAR-3; test: Growth inhibition of human OVCAR3 cells assessed as cell growth at 10^-6 M incubated for 48 hrs by sulforhodamine B assay relative to control; details: OVCAR-3, 48 h, read-out: Activity
[23] = test system: SN12C; test: Growth inhibition of human SN12C cells assessed as cell growth at 10^-6 M incubated for 48 hrs by sulforhodamine B assay relative to control; details: read-out: Activity
[24] = test system: SR; test: Growth inhibition of human SR cells assessed as cell growth at 10^-5 M incubated for 48 hrs by sulforhodamine B assay relative to control; details: read-out: Activity
[25] = test system: UACC-257; test: Growth inhibition of human UACC257 cells assessed as cell growth at 10^-5 M incubated for 48 hrs by sulforhodamine B assay relative to control; details: UACC-257, 48 h, read-out: Activity
[26] = read-out: pLC50 (the source's name) (converted)
[27] = read-out: LC50 (the source's name)

C#C[C@@]1(O)[C@@H](CO)O[C@@H](n2cc(Cl)c3c(N)ncnc32)[C@@H]1O
GI50 ([1]; read-out: GI50): 0.0185 to 0.0221 µM
TGI ([1]; read-out: TGI): > 100 µM
CC50 [1, 26]: > 100 µM
TGI ([1]; read-out: pTGI (converted)): > 100 µM
GI50 ([2]; read-out: GI50): 0.126 to 0.161 µM
CC50 [2, 27]: > 100 µM
TGI ([2]; read-out: TGI): > 100 µM
TGI ([2]; read-out: pTGI (converted)): > 100 µM
GI50 ([3]; read-out: GI50): 0.28 to 0.644 µM
CC50 [3, 27]: > 100 µM
TGI ([3]; read-out: TGI): 70.8 to 100 µM
GI50 ([4]; read-out: GI50): 0.113 to 0.23 µM
CC50 [4, 27]: > 100 µM
GI50 ([5]; read-out: GI50): 0.463 to 2.48 µM
TGI ([5]; read-out: TGI): 7.01 to 100 µM
CC50 [5, 26]: > 100 µM
growth at 0.01 µM [6]: 88 to 90%
growth at 0.01 µM [7]: 82 to 88%
growth at 0.01 µM [8]: 92 to 99%
growth at 0.01 µM [9]: 82 to 88%
growth at 0.01 µM [10]: 90 to 97%
growth at 0.01 µM [11]: 77 to 82%
growth at 0.01 µM [12]: 80 to 82%
growth at 0.01 µM [13]: 95 to 96%
growth at 0.1 µM [14]: 62 to 67%
growth at 0.1 µM [15]: 55 to 69%
growth at 0.1 µM [16]: 79 to 90%
growth at 0.1 µM [17]: 89 to 95%
growth at 0.1 µM [18]: 72 to 102%
growth at 1 µM [19]: 10%
growth at 1 µM [20]: 13 to 23%
growth at 1 µM [21]: 12 to 29%
growth at 1 µM [22]: 5 to 7%
growth at 1 µM [23]: 5 to 11%
growth at 10 µM [24]: 1 to 5%
growth at 10 µM [25]: 34 to 42%
